Data: patent US10196364B2, “Pyrimidine carboxamides as sodium channel blockers” (Purdue Pharma L.P., priority 2013, dated 2019)

Biological target: human Nav1.7 (Homo sapiens, UniProt Q15858)
Test: FLIPR sodium dye assay (CoroNa Green AM Na+ dye, primary fluorescence assay) in recombinant Nav1.7/HEK293 cells
Format: cell-based
Details: Table 6; CoroNa Green AM Na+ dye primary fluorescence assay; read-out: Nav1.7 Activity (μM) FLIPR assay IC50

Chain of human Nav1.7 (Q15858 1-1977 isoform Q15858-3): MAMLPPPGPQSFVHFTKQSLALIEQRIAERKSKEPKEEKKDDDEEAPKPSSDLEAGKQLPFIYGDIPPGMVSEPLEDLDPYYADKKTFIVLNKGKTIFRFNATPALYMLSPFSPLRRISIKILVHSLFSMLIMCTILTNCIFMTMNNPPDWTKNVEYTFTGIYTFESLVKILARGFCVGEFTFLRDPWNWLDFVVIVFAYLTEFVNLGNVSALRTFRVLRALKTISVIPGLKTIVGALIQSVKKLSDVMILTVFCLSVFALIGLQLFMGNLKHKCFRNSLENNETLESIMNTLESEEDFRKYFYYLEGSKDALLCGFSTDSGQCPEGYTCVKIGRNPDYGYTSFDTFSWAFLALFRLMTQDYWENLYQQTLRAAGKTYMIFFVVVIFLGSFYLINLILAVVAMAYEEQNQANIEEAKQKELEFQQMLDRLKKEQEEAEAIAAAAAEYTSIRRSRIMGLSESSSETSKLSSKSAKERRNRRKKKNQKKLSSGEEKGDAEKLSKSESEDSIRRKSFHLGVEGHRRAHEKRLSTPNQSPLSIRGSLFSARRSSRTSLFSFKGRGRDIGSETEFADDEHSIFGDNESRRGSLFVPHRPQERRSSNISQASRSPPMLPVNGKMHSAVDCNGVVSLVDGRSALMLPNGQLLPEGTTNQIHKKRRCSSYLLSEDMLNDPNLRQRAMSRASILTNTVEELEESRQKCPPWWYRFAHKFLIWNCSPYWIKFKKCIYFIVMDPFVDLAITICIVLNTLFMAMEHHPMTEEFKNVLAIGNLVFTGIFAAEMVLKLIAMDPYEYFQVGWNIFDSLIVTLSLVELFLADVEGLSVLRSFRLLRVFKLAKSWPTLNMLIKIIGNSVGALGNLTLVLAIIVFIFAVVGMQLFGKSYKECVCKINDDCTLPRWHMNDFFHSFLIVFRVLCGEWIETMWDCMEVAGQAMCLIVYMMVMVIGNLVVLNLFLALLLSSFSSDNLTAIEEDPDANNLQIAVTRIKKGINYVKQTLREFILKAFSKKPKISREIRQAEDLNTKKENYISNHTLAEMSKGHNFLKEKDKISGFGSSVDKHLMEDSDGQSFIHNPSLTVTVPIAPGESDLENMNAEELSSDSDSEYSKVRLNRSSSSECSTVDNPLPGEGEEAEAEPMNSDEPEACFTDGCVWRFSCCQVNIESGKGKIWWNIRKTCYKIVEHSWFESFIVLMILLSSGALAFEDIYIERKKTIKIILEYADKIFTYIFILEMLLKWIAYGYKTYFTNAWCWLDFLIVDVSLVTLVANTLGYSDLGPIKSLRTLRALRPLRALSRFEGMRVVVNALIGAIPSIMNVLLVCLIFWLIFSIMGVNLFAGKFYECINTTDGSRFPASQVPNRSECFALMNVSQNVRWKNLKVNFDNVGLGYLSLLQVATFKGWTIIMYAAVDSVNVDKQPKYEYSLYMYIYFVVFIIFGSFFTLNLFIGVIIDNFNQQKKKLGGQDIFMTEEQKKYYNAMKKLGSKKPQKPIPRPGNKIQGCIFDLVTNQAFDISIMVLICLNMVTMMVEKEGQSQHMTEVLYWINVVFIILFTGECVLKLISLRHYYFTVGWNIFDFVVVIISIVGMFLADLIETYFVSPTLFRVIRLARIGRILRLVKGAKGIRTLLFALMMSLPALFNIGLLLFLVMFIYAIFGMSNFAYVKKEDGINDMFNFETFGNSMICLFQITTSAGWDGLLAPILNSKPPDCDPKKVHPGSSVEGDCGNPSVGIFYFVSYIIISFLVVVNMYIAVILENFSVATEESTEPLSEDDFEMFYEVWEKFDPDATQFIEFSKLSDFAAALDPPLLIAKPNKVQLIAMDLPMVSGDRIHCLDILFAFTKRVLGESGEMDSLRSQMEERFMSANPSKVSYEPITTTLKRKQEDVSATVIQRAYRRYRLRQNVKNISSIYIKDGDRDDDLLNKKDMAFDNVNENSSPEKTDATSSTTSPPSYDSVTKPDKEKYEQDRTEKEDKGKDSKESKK

SMILES	IC50 [µM]
NC(=O)c1cc(N[C@H]2CCNC2=O)nc(C2CCC(Oc3ccc(C(F)(F)F)cn3)CC2)n1 (stereo partly drawn) [Cpd No. 214, (S)-6-((2-oxopyrrolidin-3-yl)amino)-2-(4-((5-(trifluoromethyl)pyridin-2-yl)oxy)cyclohexyl)pyrimnidine-4-carboxamide]	0.93
C[C@H](Nc1cc(C(N)=O)nc(Oc2ccc(F)cc2)n1)C(N)=O [compound 104, (S)-6-((1-amino-1-oxopropan-2-yl)amino)-2-(4-fluorophenoxy)pyrimidine-4-carboxamide]	> 20
C[C@H](Nc1cc(C(N)=O)nc(-c2cc(F)c(OCc3ccccc3)cc2F)n1)C(N)=O [compound 105, (S)-6-((1-amino-1-oxopropan-2-yl)amino)-2-(4-(benzyloxy)-2,5-difluorophenyl)pyrimidine-4-carboxamide]	> 20
C[C@H](Nc1cc(C(N)=O)nc(N2CC3CC2CN3c2ccc(F)cc2)n1)C(N)=O (stereo partly drawn) [compound 106, 6-(((S)-1-amino-1-oxopropan-2-yl)amino)-2-(5-(4-fluorophenyl)-2,5-diazabicyclo[2.2.1]heptan-2-yl)pyrimidine-4-carboxamide]	10 to 20
C[C@H](Nc1cc(C(N)=O)nc(N2CCC(Cc3ccccc3)CC2)n1)C(N)=O [compound 107, (S)-6-((1-amino-1-oxopropan-2-yl)amino)-2-(4-benzylpiperidin-1-yl)pyrimidine-4-carboxamide]	1.95
C[C@H](Nc1cc(C(N)=O)nc(-c2ccc(Oc3ccc4c(c3)CCC4)cc2)n1)C(N)=O [compound 109, (S)-6-((1-amino-1-oxopropan-2-yl)amino)-2-(4-((2,3-dihydro-1H-inden-5-yl)oxy)phenyl)pyrimidine-4-carboxamide]	0.11
C[C@@H](Nc1cc(C(N)=O)nc(-c2ccc(Oc3ccc(C(C)(C)C)cc3)cc2)n1)C(N)=O [compound 110, (R)-6-((1-amino-1-oxopropan-2-yl)amino)-2-(4-(4-(tert-butyl)phenoxy)phenyl)pyrimidine-4-carboxamide]	0.2
C[C@H](Nc1cc(C(N)=O)nc(-c2ccc(Oc3ccc(F)cc3)c(C(N)=O)c2)n1)C(N)=O [compound 111, (S)-6-((1-amino-1-oxopropan-2-yl)amino)-2-(3-carbamoyl-4-(4-fluorophenoxy)phenyl)pyrimidine-4-carboxamide]	7.88
N#Cc1ccc(Oc2ccc(-c3nc(N[C@H]4CCNC4=O)cc(C(N)=O)n3)cc2)cc1 [compound 113, (S)-2-(4-(4-cyanophenoxy)phenyl)-6-((2-oxopyrrolidin-3-yl)amino)pyrimidine-4-carboxamide]	0.29
NC(=O)c1cc(N[C@H]2CCNC2=O)nc(-c2ccc(Oc3ccc4c(c3)OCO4)cc2)n1 [compound 115, (S)-2-(4-(benzo[d][1,3]dioxol-5-yloxy)phenyl)-6-((2-oxopyrrolidin-3-yl)amino)pyrimnidine-4-carboxamide]	0.3
NC(=O)c1cc(O[C@H]2CCNC2=O)nc(-c2ccc(Oc3ccc(F)cc3)cc2)n1 [compound 118, (S)-2-(4-(4-fluorophenoxy)phenyl)-6-((2-oxopyrrolidin-3-yl)oxy)pyrimidine-4-carboxamide]	0.35
CC(C)(CO)[C@H](Oc1cc(C(N)=O)nc(-c2ccc(Oc3ccc(C(F)(F)F)cc3)cc2)n1)C(N)=O [compound 120, (S)-6-((1-amino-4-hydroxy-3,3-dimethyl-1-oxobutan-2-yl)oxy)-2-(4-(4-(trifluoromethyl)phenoxy)phenyl) pyrimidine-4-carboxamide]	0.76
C=CCN1CC[C@H](Oc2cc(C(N)=O)nc(-c3ccc(Oc4ccc(F)cc4)cc3)n2)C1=O [compound 122, (S)-6-((1-allyl-2-oxopyrrolidin-3-yl)oxy)-2-(4-(4-fluorophenoxy)phenyl)pyrimidine-4-carboxamide]	0.8
NC(=O)c1cc(O[C@H]2CCN(C[C@H](O)CO)C2=O)nc(-c2ccc(Oc3ccc(F)cc3)cc2)n1 [compound 123, 6-(((S)-1-((S)-2,3-dihydroxypropyl)-2-oxopyrrolidin-3-yl)oxy)-2-(4-(4-fluorophenoxy)phenyl)pyrimidine-4-carboxamide]	0.67
NC(=O)c1cc(OCCN2CCNC2=O)nc(-c2ccc(Oc3ccc(C(F)(F)F)cc3)cc2)n1 [compound 127, 6-(2-(2-oxoimidazolidin-1-yl)ethoxy)-2-(4-(4-(trifluoromethyl)phenoxy)phenyl) pyrimnidine-4-carboxamide]	0.26
C[C@H](Nc1cc(C(N)=O)nc(-c2ccc(Oc3ccc(C#N)cc3)cc2C(F)(F)F)n1)C(N)=O [compound 128, (S)-6-((1-amino-1-oxopropan-2-yl)amino)-2-(4-(4-cyanophenoxy)-2-(trifluoromethyl)phenyl)pyrimidine-4-carboxamide]	> 20
C[C@H](Oc1cc(C(N)=O)nc(-c2ccc(Oc3ccc4c(c3)CCC4)cc2)n1)C(N)=O [compound 129, (S)-6-((1-amino-1-oxopropan-2-yl)oxy)-2-(4-((2,3-dihydro-1H-inden-5-yl)oxy)phenyl)pyrimidine-4-carboxamide]	0.26
COCc1cc(Oc2ccc(F)cc2)ccc1-c1nc(N[C@@H](C)C(N)=O)cc(C(N)=O)n1 [compound 130, (S)-6-((1-amino-1-oxopropan-2-yl)amino)-2-(4-(4-fluorophenoxy)-2-(methoxymethyl)phenyl)pyrimidine-4-carboxamide]	1.77
CN1CCC(Nc2cc(C(N)=O)nc(-c3ccc(Oc4ccc(F)cc4)cc3)n2)C1=O (stereo not drawn) [compound 131, 2-(4-(4-fluorophenoxy)phenyl)-6-((1-methyl-2-oxopyrrolidin-3-yl)amino)pyrimnidine-4-carboxamide]	0.22
NC(=O)c1cc(N[C@H]2CCNC2=O)nc(N2C3CCC2CC(Oc2ccc(C(F)(F)F)cc2)C3)n1 (stereo partly drawn) [compound 135, 6-(((S)-2-oxopyrrolidin-3-yl)amino)-2-(3-(4-(trifluoromethyl)phenoxy)-8-azabicyclo[3.2.1]octan-8-yl)pyrimidine-4-carboxamide]	1.62
NC(=O)c1cc(N[C@H]2CCNC2=O)nc(N2CC3CC2CN3Cc2ccc(OC(F)(F)F)cc2)n1 (stereo partly drawn) [compound 136, 6-(((S)-2-oxopyrrolidin-3-yl)amino)-2-(5-(4-(trifluoromethoxy)benzyl)-2,5-diazabicyclo[2.2.1]heptan-2-yl)pyrimidine-4-carboxamide]	> 20
O=C(NCCN1CCCC1)c1cc(N[C@H]2CCNC2=O)nc(-c2ccc(Oc3ccc(C(F)(F)F)cn3)cc2)n1 [compound 137, (S)-6-((2-oxopyrrolidin-3-yl)amino)-N-(2-(pyrrolidin-1-yl)ethyl)-2-(4-((5-(trifluoromethyl)pyridin-2-yl)oxy)phenyl)pyrimidine-4-carboxamide]	4.17
NC(=O)c1cc(N[C@H]2CCNC2=O)nc(C2=C[C@H]3CC[C@@H](C2)N3Cc2ccc(F)cc2)n1 [compound 138, 2-((1R,5S)-8-(4-fluorobenzyl)-8-azabicyclo[3.2.1]oct-2-en-3-yl)-6-(((S)-2-oxopyrrolidin-3-yl)amino)pyrimidine-4-carboxamide]	> 20

Results, then the compound that gave them:

IC50 [µM]	SMILES
0.29	NC(=O)c1cc(N2CCNCC2C(N)=O)nc(-c2ccc(Oc3ccc(Cl)cc3F)cc2)n1 (stereo not drawn) [compound 108, 6-(2-carbamoylpiperazin-1-yl)-2-(4-(4-chloro-2-fluorophenoxy)phenyl)pyrimnidine-4-carboxamide]
0.38	CC(C)N1CCN(c2cc(C(N)=O)nc(-c3ccc(Oc4ccc(F)cc4)cc3)n2)C(C(N)=O)C1 (stereo not drawn) [compound 112, 6-(2-carbamoyl-4-isopropylpiperazin-1-yl)-2-(4-(4-fluorophenoxy)phenyl)pyrimidine-4-carboxamide]
0.33	NC(=O)c1cc(N[C@H]2CCNC2=O)nc(-c2ccc(Oc3ccc(C(F)(F)F)cc3)cc2)n1 [compound 114, (S)-6-((2-oxopyrrolidin-3-yl)amino)-2-(4-(4-(trifluoromethyl)phenoxy)phenyl)pyrimidine-4-carboxamide]
0.18	NC(=O)c1cc(N[C@H]2CCNC2=O)nc(-c2ccc(Oc3ccc(OC(F)(F)F)cc3)cc2)n1 [compound 116, (S)-6-((2-oxopyrrolidin-3-yl)amino)-2-(4-(4-(trifluoromethoxy)phenoxy)phenyl)pyrimidine-4-carboxamide]
0.12	NC(=O)c1cc(OCCN2CCCC2=O)nc(-c2ccc(Oc3ccc(C(F)(F)F)cc3)cc2)n1 [compound 119, 6-(2-(2-oxopyrrolidin-1-yl)ethoxy)-2-(4-(4-(trifluoromethyl)phenoxy)phenyl)pyrimidine-4-carboxamide]
1.01	NC(=O)c1cc(O[C@@H](CO)C(N)=O)nc(-c2ccc(Oc3ccc(C(F)(F)F)cc3)cc2)n1 [compound 121, (S)-6-((1-amino-3-hydroxy-1-oxopropan-2-yl)oxy)-2-(4-(4-(trifluoromethyl)phenoxy)phenyl)pyrimidine-4-carboxamide]
0.7	NC(=O)c1cc(O[C@H](C(N)=O)C(O)CO)nc(-c2ccc(Oc3ccc(C(F)(F)F)cc3)cc2)n1 (stereo partly drawn) [compound 124, 6-(((2S)-1-amino-3,4-dihydroxy-1-oxobutan-2-yl)oxy)-2-(4-(4-(trifluoromethyl)phenoxy)phenyl)pyrimidine-4-carboxamide]
0.28	NC(=O)c1cc(N2CCC[C@H]2C(N)=O)nc(-c2ccc(Oc3ccc(OC(F)(F)F)cc3)cc2)n1 [compound 125, (S)-6-(2-carbamoylpyrrolidin-1-yl)-2-(4-(4-(trifluoromethoxy)phenoxy)phenyl)pyrimnidine-4-carboxamide]
> 20	NC(=O)c1cc(-c2ccc(Oc3ccc(OC(F)(F)F)cc3)cc2)nc(N2CCC[C@H]2C(N)=O)n1 [compound 126, (S)-2-(2-carbamoylpyrrolidin-1-yl)-6-(4-(4-(trifluoromethoxy)phenoxy)phenyl)pyrimidine-4-carboxamide]
0.28	NC(=O)c1cc(N2CC[C@H]2C(N)=O)nc(-c2ccc(Oc3ccc(F)cc3)cc2)n1 [compound 132, (S)-6-(2-carbamoylazetidin-1-yl)-2-(4-(4-fluorophenoxy)phenyl)pyrimidine-4-carboxamide]
